Entries after “also recorded” stand apart in the source; their conditions may differ. Where two headings read alike, the source gives them in different places.

By half-life is commonly meant the time needed for the level to fall by half in the phase considered. A word on the mortality: it is the percentage killed. A higher mortality goes with a strong lethal effect.

Data set [1] deals with secretory phospholipase A2 (sPLA2). Kind of data set: sPLA2 activity in plasma. Format: in vivo, mice. As for the experimental part:
(§1) Mice were given by intraperitoneal injection (i.p.) a lethal dose of APAP (600 mg/kg in 0.45 N NaCl, pH 8.2) or the vehicle alone. Treated mice were given a single injection of 20 mg/kg, i.p., BPPA, a sPLA2 inhibitor, after a set time interval (2, 4, and 8 hours after the dose of APAP). BPPA was purchased from a commercial source (Catalog No. 53319, Sigma Aldrich, St. Louis, Mo.). All the mice were observed six times on the first day and twice daily thereafter for 14 days for any mortality. […] Plasma was obtained by centrifugation of blood samples (1000 g for 20 min) for assessment of biochemical parameters of liver injury. The remaining plasma was quick-frozen in liquid nitrogen and stored at −80° C. until further analysis.
sPLA2 activity in the plasma was measured using sPLA2 activity kit (Cayman Chemicals, Ann Arbor, Mich.) as per the manufacturer's instructions. sPLA2 activity in plasma was expressed as sPLA2 units/ml. One unit of sPLA2 hydrolyzes one μmole of substrate (diheptanoyl Thio-phosphatidylcholine) per min at 25° C. and is expressed as μmoles substrate hydrolyzed/min/ml.

Data set [2] has as its system plasma alanine aminotransferase (ALT). Description: Plasma alanine aminotransferase (ALT) as biomarker of liver injury. Format: in vivo, mice. As for the experimental part:
as §1
Plasma was separated by centrifugation of the heparinized blood. Plasma alanine aminotransferase (ALT) was measured as a biomarker of liver injury using a kit from Thermo DMA (Waltham, Mass.). The results were ascertained by light microscopic examination of liver sections stained with hematoxylin and eosin (H&E).

The conditions of data set [3]: mice; cited from earlier work.
For data set [4] the following is noted: humans; cited from earlier work.
The subject of data set [5] is Male Swiss Webster mice given a lethal dose of acetaminophen (APAP). Description: Survival of mice given a lethal dose of APAP, with or without BPPA treatment. Format: in vivo. To be noted: for mortality: APAP alone. Here is the method: Male Swiss Webster mice weighing between 25-30 g were obtained from Harlan Laboratories (Indianapolis, Ind.). Mice had unlimited access to rodent chow (Harlan Teklad Rat Chow No. 7001, Madison, Wis.) and water. The mice were housed over sawdust bedding free of any known chemical contaminants (Sani-chips; Harlan Teklad, Madison, Wis.) in air conditioned quarters (21±1° C.) with a 12 h photoperiod. All animal husbandry and handling conditions were as per the NIH Guide for Care and Use of Laboratory Animals. Research protocols were approved by the ULM Institutional Animal Care and Use Committee (IACUC).
as §1

The test system of data set [6] is rats receiving chlordecone (CD)+CCl4. Description: Survival after chlordecone + CCl4 combination with BPPA treatment. Format: in vivo. To be noted: BPPA 20 mg/kg 1 hour after CCl4 injection; rats on chlordecone; data not shown. As for the experimental part:
A combination of two chemicals, which are known to be nontoxic individually at very low levels, is known to be highly toxic when combined in mammals. One of these is a chlorinated pesticide known as KEPONE™, which is commonly known as chlordecone. The other is the organic solvent, carbon tetrachloride (CCl4). Either chemical will be toxic if given at a sufficient dose. For example, chlordecone, administered to older rats at 120 mg/kg causes central nervous system (CNS) toxicity such as tremors, convulsions and death. CCl4 injected or given orally at 4 ml/kg causes severe liver necrosis, liver failure and death. […] Likewise, exposing rats to a single dose of 100 μl/kg CCL4, i.p. led to the classic centrilobular injury by 3 hours, which escalated to about 4 fold injury in the liver by 12 hours. However, by 24 hours, the liver injury was repaired and no liver injury was observed. In contrast, if the same dose of CCl4 was given to rats maintained on dietary 10 ppm chlordecone for 15 days, on day 16, all rats died within 3 days after injecting CCl4, which is about a 67-fold amplification of the toxicity for CCl4 (Mehendale, 1994).
Using this combination of chlordecone and CCL4, BPPA (20 mg/kg) was injected in the rats 1 hour after the injection of CCl4, and 90% of the rats receiving the chlordecone (CD)+CCl4 survived (data not shown).

Data set [7] relates to mice lethally poisoned with thioacetamide. Kind of data set: Rescue of mice lethally poisoned with thioacetamide by BPPA. Conditions: data not shown. Type of data set: in vivo. From the text: In addition, I have shown that sPLA2 mediates the liver injury initiated by thioacetamide, another hepatotoxicant, by showing mice lethally poisoned with thioacetamide were rescued by inhibiting sPLA2 with BPPA (data not shown).

Data set [8] concerns rats maintained on dietary 10 ppm chlordecone. Conditions: CCl4 100 μl/kg i.p. on day 16 to rats on dietary 10 ppm chlordecone for 15 days; cited from earlier work.
Where [9] appears, read: APAP alone 600 mg/kg i.p., measured on Day 2, vs control and vehicle.
[10] abbreviates: BPPA 20 mg/kg 2 hours after APAP 600 mg/kg, surviving mice, over 14 days.
Setting [11] is: BPPA 20 mg/kg 4 hours after APAP 600 mg/kg.

On to `CC(=O)Nc1ccc(O)cc1` [APAP, Acetaminophen], for which, in data set [1] (setting [9]), the “plasma sPLA2 enzymatic activity” value is given as “increased”. Besides, the “plasma ALT enzymatic activity” value in data set [2] (setting [9]) is on record as “increased”. Moreover, the figures for the half-life in data set [3] and in data set [4] were 1 h and 2.5 h, respectively. Also, the mortality in data set [5] (single dose 600 mg/kg i.p., no further treatment) was 80%; in data set [5] (at 12 hours after injection), 50%; in data set [5] (at 24 hours after injection), 80%.

In the case of `O=C(O)CC[C@@H](Cc1ccc(OCc2ccccc2)cc1)NC(=O)CCCCCCc1ccccc1` [BPPA, 5-(4-Benzyloxyphenyl)-4S-(7-phenylheptanoylamino) pentanoic acid], the “plasma sPLA2 activity” value in data set [1] (setting [10]) is “down to the normal values; also recorded: decreased”. Moreover, the “plasma sPLA2 level” value in data set [1] (setting [11]) is listed as “decreased to about normal levels”. The survival in data set [6] is given as 90%; in data set [5] (BPPA 20 mg/kg i.p. 4 hours after APAP 600 mg/kg i.p., observed 14 days), 70%; in data set [5] (BPPA 20 mg/kg i.p. 8 hours after APAP 600 mg/kg i.p., observed 14 days), 60%; in data set [5] (inhibitor administered 2 to 8 hours after APAP 600 mg/kg) it was 60%-80. In data set [7], the “rescue from lethal thioacetamide poisoning” value is “rescued”. Besides, in data set [7] (mice lethally dosed with thioacetamide, treated with BPPA), the mortality entry is “less mortality”. Moreover, the “plasma ALT activity” value in data set [2] (setting [10]) is “down to the normal values; also recorded: decreased”. Also, the “plasma ALT level” value in data set [2] (setting [11]) is recorded as “decreased to about normal levels”. Moreover, in data set [5] (at 14 days, BPPA 20 mg/kg 2 hours after acetaminophen), the cumulative mortality is recorded as 10%.

In the case of `ClC(Cl)(Cl)Cl` [CCl4, carbon tetrachloride], the “amplification of the toxicity” value in data set [8] was roughly 67 fold.

The values above are taken from patent US20130253060A1, “Intramural Research Program of the National Institutes of Health, National Institute of Environmental Health Sciences (NIEHS)” (priority 2011, published 2013).
